Reference: PMC5876388 (Scientific Reports, 2018)

How the values were obtained:
[1] = Cytotoxicity test, AlamarBlue; conditions: human, HPB-ALL cells
Procedure: (§1) HPB-ALL cells (1 × 10^4 cells per well) were incubated in 96-well black plates at 37 °C for 72 h. Media also contained different concentrations of compound. After incubation, AlamarBlue was added 10 μL per well. After incubation for 4 h, using a fluorescence plate reader, fluorescence was measured and cell viability was determined. Data are presented as the mean with SD from three independent experiments. […] The effect on protein expression was analyzed by Western blotting. β-Actin was used as internal control. (D,E) Relative protein levels of NICD and HES1 analyzed by densitometry. Data are presented as the mean with SD from three independent experiments. *P < 0.05 is considered statistically significant. P values were analyzed by Student’s t test.
HPB-ALL cells (1 × 10^4 cells per well) were incubated in 96-well black plates in 100 μL of RPMI-1640 medium with 10% FBS, Streptomycin (100 μg/mL) and Penicillin (100 unit/mL). Media also contained different concentrations of compound. Cells were incubated at 37 °C for 72 h. After incubation, AlamarBlue (00–025, DAL1025; Thermo Fisher Scientific Inc., Waltham, USA) was added 10 μL per well. After incubation for 4 h, using a fluorescence plate reader (Thermo Fisher Scientific Inc., Waltham, USA), fluorescence was measured and cell viability was determined.

HEK293 cells = assay: Cytotoxicity test, FMCA; format: cell-based, human; conditions: 72 h
Procedure: The medium was exchanged to fresh medium with different concentrations of compound and cells were incubated for 72 h.

HES1 [2] = assay: Western blot in assay cells; format: cell-based; conditions: LS174T Notch cells, 12 h
Procedure: (§2) After another 12 h incubation with 50 ng/mL Dox, and cells were washed with PBS. Medium was changed to fresh medium with 2 and incubated for 12 h. […] (C–F) Relative protein levels analyzed by densitometry. […] P values were analyzed by Student’s t test.
(§3) Before another 12 h incubation, 50 ng/mL of doxycycline was added into each dish. Then, medium was changed to fresh medium with each compound. After 12 h incubation, cells were washed with PBS (500 μL) twice and then cells were collected by scraping. Using lysis buffer (20 mM Tris-HCl pH 7.4, 150 mM NaCl, 0.5% sodium deoxycholate, 10 mM EDTA, 1 mM sodium orthovanadate, and 0.1 mM NaF) containing a 1% […] inhibiotor cocktail (Nacalai Tesque, Tokyo, Japan), protein lysate was prepared. Protein lysates were separated by a 7.5%, 10%, 12.5% and 15% SDS-PAGE electrophoresis. Proteins were then transferred to a PVDF membrane (Bio-Rad Laboratories, Inc. Hercules, USA) electrophoretically. The membrane was incubated for 1 h with TBST (10 mM Tris-HCl pH 7.4, 100 mM NaCl and 0.1% Tween 20) containing 5% skimmed milk. […]

HES5 = assay: Western blot in assay cells; format: cell-based; conditions: LS174T Notch cells, 12 h
Procedure: as §2, §3

NICD [3] = assay: Western blot in assay cells; format: cell-based, mouse; conditions: LS174T Notch cells, 12 h
Procedure: as §2, §3

Notch1(1704–2531) = assay: Western blot in assay cells; format: cell-based, mouse; conditions: LS174T Notch cells, 12 h
Procedure: as §2, §3

HES1 [4] = assay: Western blot in HPB-ALL cells; format: cell-based, human; conditions: 10 μM, 72 h
Procedure: as §1
(§4) HPB-ALL cells were incubated in a 6 cm dish in 5 mL of RPMI-1640 medium with 10% FBS, Streptomycin (100 μg/mL) and Penicillin (100 unit/mL) at 5 × 10^5 cells per dish (1 × 10^6 cells per dish, when treatment with MG132). Media also contained different concentrations of compound. Cells were incubated at 37 °C for 72 h (12 h, when treatment with MG132). After incubation, cells were centrifuged and collected, and then washed with 500 μL of PBS twice. To prepare cell lysate and confirm protein expression levels, the same method as described above was used.

NICD [5] = assay: Western blot in HPB-ALL cells; format: cell-based, human; conditions: 10 μM, 72 h
Procedure: as §1, §4

APH-1 = assay: Western blot in HPB-ALL cells; format: cell-based, human; conditions: 72 h
Procedure: (§5) (A) Schematic representation of γ-secretase complex. γ-Secretase is composed of four membrane proteins: presenilin1 (PS1), nicastrin (NCT), anterior pharynx defective 1 (APH-1) and presenilin enhancer 2 (PEN-2). […] (E,F) Relative protein levels of nicastrin mature and immature analyzed by densitometry. […] P values were analyzed by Student’s t test.
(§6) Media also contained different concentrations of compound. Cells were incubated at 37 °C for 72 h (12 h, when treatment with MG132). After incubation, cells were centrifuged and collected, and then washed with 500 μL of PBS twice. To prepare cell lysate and confirm protein expression levels, the same method as described above was used.

PEN-2 = assay: Western blot in HPB-ALL cells; format: cell-based, human; conditions: 72 h
Procedure: as §5, §6

PS1 = assay: Western blot in HPB-ALL cells; format: cell-based, human; conditions: 72 h
Procedure: as §5, §6

COc1c(O)cc2oc3cc(O)c(CC=C(C)C)c(O)c3c(=O)c2c1C/C=C(\C)CCC=C(C)C [Compound 2, cowanin]
IC50 at 72 h [1]: 7.5 µM | viability at 12 h, 15 µM [1]: 98% | viability of normal human embryonic kidney 293 cells (HEK293 cells; 10 μM): not affected | cytotoxicity on 293 cells (HEK293 cells; 20 μM): cytotoxicity was detected | expression of HES1 (HES1 [2]): reduced | expression of HES5 (HES5): reduced | NICD level (NICD [3]): reduced dose dependently | expression of Notch1(1704–2531) (Notch1(1704–2531)): increased | expression of HES1 (HES1 [4]): reduced | expression of NICD (NICD [5]): reduced | expression of APH-1 (APH-1): didn’t affect | expression of PEN-2 (PEN-2): didn’t affect | expression of PS1 (PS1): didn’t affect
